Experimental data from US9162975B2, “Phenyl carbamate compounds for use in alleviating or treating pain” (Bio-Pharm Solutions Co., Ltd., priority 2011, dated 2015).

Assays:
ICR mice [1] = assay: Writhing test (acetic acid); type: in vivo; conditions: number of writhes relative to vehicle control, 20 mg/kg po, 0.6% acetic acid
Experimental: To examine the pain relief effect of the phenyl carbamate compounds, a writhing test was conducted in general pain animal model referring to Fischer, L. G. et al. (2008).
ICR mice (male, 24-28 g; Orient Bio, Korea) were habituated before test in test room for 1 hour Animals were fasted 2 hr, before administration of compounds. Each of Compound 1, 2, 3, 4, 5, 63, 65, and 67 was orally administered at the dose of 20 mg/kg, 10 ul/g, bw (n=3˜5/group). All compounds were dissolved in a vehicle of 30% (v/v) PEG 400 or 20% (v/v) Tween 80. The control group was treated the vehicle without compounds.
One hour after the administration of Compounds, 0.6% acetic acid at the dose of 10 ul/g, bw was injected into the mice. Animals were habituated in the cage for 5 min 5 min after habituation, the number of writhes (abdominal constriction) for 15 min was counted referring to Korzeniewska-Rybicka, I. et al. (1998) and compared with that of a control.

SNL model in rats = assay: Antiallodynic activity on Chung model (SNL, spinal nerve ligation), von Frey; type: in vivo, Sprague-Dawley rats; conditions: paw withdrawal threshold relative to sham, 50 mg/kg p.o.
Experimental: Male Sprague-Dawley rats (200-220 g, Orient Bio, Korea) were habituated for 1 week before the experiment and allowed free access to food and water throughout the experimentation. Room temperature and humidity were maintained at 24±2° C. and 50±10%, respectively. Neuropathic surgery (SNL, Spinal nerve ligation) model was done as described in Kim and Chung (1992). Briefly, animal under gaseous anesthesia with isoflurane a 4:4 flow ratio of NO2. The left lumber spinal nerve L5 and L6 were isolated and tightly ligated with 4˜0 silk thread. The wound was treated with a gentamicin antibiotics solution (4 mg/kg, 4 ul/g, bw), and the wound muscle was closed with cat cut chrome 4/0 thread and skin was closed dafilon 4/0 tread. Sham controls were prepared in the same manner as the spinal nerves were exposed, but no ligated L5 and L6 nerves. But, vehicle controls were identical to SNL model, except for administration of vehicles.
Tactile sensitivity (Mechanical allodynia) was evaluated using von Frey monofilaments before and after treatment and animals were used withdrawal threshold value was less than 4 g. […] The tactile sensitivity for ipsilateral hind paw was measured using the up-and-down method (Dixon, 1980) with seven von Frey monofilaments (0.4, 1, 2, 4, 6, 8, and 15 g) to 3 trials. […] The 50% paw withdrawal threshold for each paw was calculated using the following formula: [Xth] log=[vFr] log+ky where [vFr] is the force of the last von Frey used, k=0.2249 which is the average interval (in log units) between the von Frey monofilaments, and y is a value that depends upon the pattern of withdrawal responses (Dixon, 1980).
All animals were fasted 18 h before the administration of the compounds. Antiallodynic effect of compounds of Examples 1, 63 and 65 were evaluated at the dose of 5, 10 and 30 mg/kg (n=5˜6), orally administrated in a volume of 5 ul/g, bw in a vehicle of 30% (v/v) PEG 400 (Examples 1 and 63) or 20% (v/v) Tween 80 (Example 65). […]

ICR mice [2] = assay: Hot-plate test; type: in vivo; conditions: withdrawal latency relative to vehicle control, 150 mg/kg po, hot plate 55±1° C.
Experimental: To examine the pain relief effect of the phenyl carbamate compounds, a hot-plate test was conducted in general pain animal model referring to Current Protocols in Neuroscience; Behavioral Neuroscience Unit 8.9.
ICR mice (male, 30-35 g; Orient Bio, Korea) were habituated before test in test room for 1 hour Animals were fasted 2 hr before administration of compounds. Each of Compound 1, 2, 3, 4, 5, 63, 65, and 67 was orally administered at the dose of 150 mg/kg, 10 ul/g, bw (n=7˜10/group). All compounds were dissolved in a vehicle of 30% (v/v) PEG 400 or 20% (v/v) Tween 80. The control group was treated the vehicle without compounds.
0.5 hr after the administration of compounds, the mice were put on a hot plate pre-heated to 55±1° C. (Hu, X. et al, 2008), and then, measured as the withdrawal latency (cut-off time: 30 sec) time until the point when each mouse was taking off a paw from the plate, shaking, licking a paw or hind leg, or jumping from the plate.

mice = assay: Measurement of neurotoxicity (rotarod); type: in vivo; conditions: protective index, ratio of TD50 to ED50 in MES
Experimental: The measurement of neurotoxicity of the test compounds was conducted by the method of Dunham and Miya [Dunham, N. W. and Miya, T. S. 1957. A note on a simple apparatus for detecting neurological deficit in rats and mice. J. Am. Pharm. Assoc. (Baltimore) 46: 208-209]. In the method, motor abilities of the test animals can be determined by observing whether the test animals can walk without falling from a rotator, thereby determining the value of neurotoxicity of each compound. […] They were pre-trained on the rotarod (Rotarod; Columbus instrument, rota-max, USA) at 6 rpm for 5 min 24 hr prior to the test. The peak time was determined by administration test material's random dose for 0.5, 1, 2, 4 hour. […] The ratio of TD50 to ED50 (TD50/ED50) is called as a protective index, and useful as a parameter for comparison of pharmaceutical efficacy and neurotoxicity.

Structure (SMILES)	Writhing test (20 mg/kg, 1 h, po) % Control (ICR mice [1]) [%]	SNL (50 mg/kg, 1 h, p.o.) % Control (SNL model in rats) [%]	Hot-plate test (150 mg/kg, 0.5 h, po) % Control (ICR mice [2]) [%]	PI(TD50/ED50 in MES) (mice)
C[C@H](OC(N)=O)[C@@H](O)c1ccccc1F [Example 63, 1-(2-fluorophenyl)-(S)-1-hydroxypropyl-(S)-2-carbamate]	63.9	55.4	183.1	
CC[C@H](OC(N)=O)[C@@H](O)c1ccccc1I [Example 67, 1-(2-iodophenyl)-(S)-1-hydroxybutyl-(S)-2-carbamate]	68.3		131.4	
C[C@@H](OC(N)=O)[C@@H](O)c1ccccc1Cl [Example 4, 1-(2-chlorophenyl)-(S)-1-hydroxypropyl-(R)-2-carbamate]	75.5		108.2	
C[C@H](OC(N)=O)[C@@H](O)c1c(Cl)cccc1Cl [Example 37, 1-(2,6-dichlorophenyl)-(S)-1-hydroxypropyl-(S)-2-carbamate]				5.1
C[C@@H](OC(N)=O)[C@H](O)c1ccccc1Cl [Example 2, 1-(2-chlorophenyl)-(R)-1-hydroxypropyl-(R)-2-carbamate]	73.8		129.8	7.3
C[C@H](OC(N)=O)[C@@H](O)c1ccccc1I [Example 65, 1-(2-iodophenyl)-(S)-1-hydroxypropyl-(S)-2-carbamate]	60.6	76.8	104.1	
C[C@H](OC(N)=O)[C@H](O)c1ccccc1Cl [Example 5, 1-(2-chlorophenyl)-(R)-1-hydroxypropyl-(S)-2-carbamate]	66.6		145.5	3.3
CC(OC(N)=O)C(O)c1ccccc1Cl (racemic) [Example 3, 1-(2-chlorophenyl)-1-hydroxypropyl-2-carbamate]	84.8		120.5	12.0
